Measured values: patent US7344845B2, “Olfactory receptor for isovaleric acid and related malodorants and use thereof in assays for identification of blockers of malodor” (Senomyx, Inc., priority 2001, dated 2008)

Test system: individual murine olfactory neurons
Assay: Ca2+ imaging (fura-2) of isolated murine olfactory neurons contacted with isovaleric acid
Assay type: cell-based, Balb/C mice
Description: Essentially, individual murine olfactory neurons isolated from an enzymatically and mechanically dissociated preparations of murine olfactory epithelium. A very mild trypsin dissociation allows to obtain a single cell suspension in which neurons still bear their axon and dendrites and can therefore be picked based on their morphology. The neurons were loaded with a Ca^2+-sensing fluorescent dye (fura-2) and contacted with isovaleric acid (at 10–100 μM). Single neurons that responded to the isovaleric acid stimulus, as indicated by transient increases in the concentration of intracellular Ca2+ were identified in a microscope field and collected using a suction microcapillary. […]
Olfactory neuroepithelium was dissected from Balb/C mice and placed in a small Petri dish with phosphate-buffered saline (PBS) without Ca^2+ and Mg^2+. […] After dissociation, the tissue was transferred into 5 ml PBS without Ca^2+ and Mg^2+ and the tissue was triturated very gently by pipetting up and down 4–5 times with plastic disposable, progress of cell dissociation was monitored under inverted microscope. […] Isolated olfactory sensory neurons were identified in an inverted microscope field either by their morphology alone (for random control neurons) or by the morphology and ability to respond to IVA as detected by Ca^2+-imaging. […]

CC(C)CC(=O)O [isovaleric acid]
response of a single olfactory neuron indicated by changes in fura-2 fluorescence intensity ratios (340/380 nm) (IVA at either 100 μM or 10 μM, single isolated neuron, FIG. 3): response | murine olfactory receptors activated (receptors expressed in IVA-responding neurons) (isovaleric acid at 10–100 μM, eleven murine olfactory receptors, mOR IVA A through mOR IVA L): activated
